US20080153792A1, “Drug Identification and Treatment Method” (priority 2006, published 2008)
Where two headings read alike, the source gives them in different places.

Experiments:
[1] = system: γ-interferon production by human whole blood; test: γ-interferon production in human whole blood exposed to LPS; type: cell-based; conditions: LPS 24 hours; 16α-bromoepiandrosterone at 100 ng/mL
Experimental: Anti-inflammation activity in human cells in vitro. […] The amount of γ-interferon was measured in the growth medium when the cells had been incubated in the presence of LPS for 24 hours.

[2] = system: mice given a lethal amount of LPS; test: lethal shock protocol, lethal amount of bacterial LPS; type: in vivo, mouse; conditions: second assay; oral gavage 24 h before and 1 h after LPS
Experimental: Treatment of lethal inflammation/shock. Two compounds, 16α-bromoepiandrosterone (3β-hydroxy-16α-bromoandrostane-17-one) and 3β,16α-dihydroxy-17-oxoandrostane, were used in a lethal shock protocol. In one protocol, 3 mg of 16α-bromoepiandrosterone was administered to one group of animals by oral gavage, while another group received 3 mg of 16α-bromoepiandrosterone by subcutaneous injection. A group of control animals received a placebo control. In this protocol, the 16α-bromoepiandrosterone was administered to mice at 24 hours before and at 1 hour after administration of a lethal amount of bacterial lipopolysaccharide (LPS). By the end of the observation period, 72 hours after LPS administration, none of the vehicle treated placebo control animals had survived, while 65% of animals that received 16α-bromoepiandrosterone by oral administration survived. 50% of the animals that received 16α-bromoepiandrosterone by subcutaneous injection survived. Animals that survived for 72 hours all recovered from the LPS exposure.
In a second assay, 16α-bromoepiandrosterone or 3β,16α-dihydroxy-17-oxoandrostane was administered to mice by oral gavage at 24 hours before and 1 hour after administration of a lethal amount of LPS. A vehicle treated group of animals was used as the placebo control.

[3] = system: human peripheral blood mononuclear cells (PBMC); test: human mixed lymphocyte reaction (MLR); type: cell-based; conditions: either 300 nM or 30 nM; 6 days; p>0.05
Experimental: Human mixed lymphocyte reaction (MLR). The capacity of 3β,16α-dihydroxy-17-oxoandrostane, 3β,17β-dihydroxy-16-oxoandrostane, 17α-ethynylandrost-5-ene-3β,7β,17β-triol, and 17β-aminoandrost-5-ene-3β-ol to affect antigen specific stimulation in which human T lymphocytes respond to a specific foreign antigen (major histocompatibility complex).
Blood samples were obtained from 3 (2 males, […]) fasting, healthy human volunteers of 23-31 years old. […] The subjects were bled between […] to limit possible fluctuations in the circulating levels of hormones or cytokines that could have influenced the in vitro responses of their lymphocytes. Peripheral blood mononuclear cells (PBMC) were isolated by centrifugation on Ficoll-Hypaque (density 1.077, Biochrom AG, Berlin, Germany) gradients and resuspended in culture medium (RPMI 1640 supplemented with 2 mM L-glutamine, penicillin (100 U/mL) and streptomycin ([…]) (Invitrogen s.rl., Milan, Italy). Autologous (responder) inactivated plasma was used at 10%. Five hundred thousand responder PBMC (PBMCr) and 500,000 allogeneic irradiated (30 Gy) stimulator PBMC (PBMCs) were mixed at a ratio of 1:1 in 200 μL medium and cultured for 6 days in flat bottom 96 well plates (Nunc, Roskilde, Denmark) at a concentration of 300 nM or 30 nM for each of the 4 compounds. The compounds were dissolved in ethanol and then diluted to the desired concentration with culture medium leading to a final solution containing 0.01% of ethanol. This vehicle was used as control. Controls also included PBMCr and PBMCs cultured separately. During the last 8 hours of the culture period the PBMC were pulsed with 1 μCi/well [^3H] thymidine (Amersham, Milan, Italy). The cells were then harvested and radioactivity incorporation measured with a beta cell counter. The mean cpm of quadruplicate wells was calculated. Proliferation of T cells was expressed as a stimulation index: SI=cpm (PMBCs xPBMCr)/cpm (PBMCr)+cpm (PBMCs). Statistical analysis was performed using the Student's t test. The cpm obtained from quadruplicate of each test compound were compared to proliferative responses obtained in control PBMCr and PBMCs cultured in the presence of the vehicle. Differences were considered significant at p<0.05.

NF-κB = test: NF-κB-bla THP-1 β-lactamase reporter assay; type: cell-based, human
[4] = system: CD1 male mice, carrageenan-λ induced pleurisy; test: carrageenan-λ induced lung (pleural cavity) inflammation in mice; type: in vivo, mouse; conditions: for number of neutrophils relative to untreated carrageenan-λ control (100%): 4 h after carrageenan
[5] = system: mice, LPS induced lung injury; test: lung injury by sublethal LPS to trachea and lungs, BAL cell count; type: in vivo, mouse; conditions: oral gavage 24 h before and 1 h after 100 μg LPS; 48 hours
Experimental: In another assay, the capacity of 16α-bromoepiandrosterone and 3β,16α-dihydroxy-17-oxoandrostane to protect against lung injury induced by exposure to a sublethal amount of LPS in mice was shown. In this assay, the compounds, sterile saline (negative control) or vehicle (vehicle control) were administered to groups of 5 mice by oral gavage at 24 hours before and 1 hour after administration of 100 μg of LPS to the trachea and lungs of animals under light anesthesia. At 48 hours the animals were sacrificed and samples were obtained from the lungs of the animals by bronchiolar alveolar lavage (BAL). The numbers of cells in the BAL fluid were counted, with high numbers of cells showing lung inflammation and damage. In this assay, cells that mediate inflammation and lung damage infiltrate into the lungs in response to the presence of the LPS. In the negative control and vehicle control groups, the BAL fluid contained about 6×10^7 cells/mL. […] Other compounds, e.g., 17α-ethynylandrost-5-ene-3β,7β,17β-triol or 17β-aminoandrost-5-ene-3β-ol, can be characterized in a similar manner.

[6] = metabolic stability in liver microsomes, species not stated; type: in vitro ADME; conditions: compared with androst-5-ene-3β,17β-diol reference compound
Experimental: The protocol was performed as follows. […] (2) Set up samples as follows. […] (4) The internal standard/acetonitrile solution.

[7] = system: bone marrow-derived mast cells (BMMC); test: mast cell stimulus-coupled degranulation (glucuronidase release); type: cell-based, mouse
Experimental: In another protocol, a population of mast cells was cultivated from murine bone marrow as follows. Briefly, bone marrows from Balb/C mice were flushed from the femur using PBS and a 27 g needle. The cells were cultured in a mixture of ⅔ RPMI-1640 with 19% FBS and cells that secreted IL-3. The bone marrow cells were allowed to differentiate for 18-25 days in the IL-3-containing mixture before being used for experiments. Bone marrow cells cultured in this manner have a phenotype similar to mucosal mast cells and are referred to as bone marrow-derived mast cells (BMMC).
The homogeneity of the in vitro propagated mast cells was checked by conventional flow cytometry techniques and staining for cell-type specific markers. Between days 14 and 21 of propagation, mature mast cells were harvested and prepared for the test cultures. The objective was to assess of the effect of compounds such as dehydroepiandrosterone on mast cell stimulus-coupled degranulation. Prepared mast cells were dispensed into test culture wells at a density of 1×10^7 cells/mL. In control cultures, mast cells were induced to degranulate after cross linking of IgE receptors with IgE antigen-antibody complexes. […] There was no detectable degranulation of mast cells as measured by release of […] from cytosolic storage granules of the cells in the absence of the stimulus. […]

[8] = system: mice treated daily with dexamethasone; test: osteoprotegerin levels in dexamethasone treated mice; type: in vivo, mouse; conditions: vehicle and dexamethasone at 10 μg/day for 23 days (positive control group)
Experimental: Osteoprotegerin levels in mice that were treated with vehicle and dexamethasone at 10 μg/day (positive control group) had 3.3 pMol/L osteoprotegerin, while animals treated with vehicle, dexamethasone and 17α-ethynyl-5-androstene-3β,7β,17β-triol at 4 mg/kg/day had 6.4 pMol/L osteoprotegerin (p<0.05).

MG-63 cells = test: reversal of glucocorticoid effects in MG-63 osteosarcoma cells; type: cell-based, human; conditions: dexamethasone 30 nM
[9] = system: BALB/c mice, OVA sensitized and challenged; test: ovalbumin (OVA) sensitized mouse model of asthma; type: in vivo; conditions: for IL-13: s.c. once daily, dexamethasone 5 mg/kg, compound 1 mg/mouse
Experimental: BALB/c mice were sensitized by intraperitoneal injection with OVA (in alum adjuvant) on days 1, and 12. Airways were challenged with OVA on days 28 and 30 by delivery of OVA to the lung, or with saline. […] The remaining animals were divided into 6 groups (6 mice per group). Groups of the mice were treated once daily by subcutaneous injection as follows. Group 1 vehicle control (0.1% carboxymethyl cellulose, 0.9% saline, 2% tween 80, 0.05% phenol). Group 2 dexamethazone (5 mg/kg). Group 3 3α,16α,17α-trihydroxyandrostane (1 mg/mouse). Three animals in groups 1-3 were sacrificed on day 35 at 1 hr after final treatment and the remaining 3 animals in groups 1-3 were sacrificed on day 38.

[10] = system: BALB/C mice, TNP-OVA sensitized; test: reporter antigen popliteal lymph node (PLN) assay; type: in vivo, mouse; conditions: 5 μg/day by subcutaneous injection; day 5
Text: Analysis of immune suppression. Glucocorticoid steroids such as dexamethasone or hydrocortisone are typically immune suppressive and have significant toxicities associated with their use. Immune suppression was examined in a reporter antigen popliteal lymph node assay in mice essentially as previously described (C. Goebel et al., Inflamm. Res., 45(Suppl. 2):S85-S90, 1996; R. Pieters et al., Environmental Health Perspectives 107(Suppl. 5):673-677,1999). […] In this protocol, the vehicle was 0.1% carboxymethylcellulose, 0.9% saline, 2% tween 80 and 0.05% phenol, which contained 17α-ethynylandrost-5-ene-3β,7β,17β-triol in suspension in drug treated animals. Assessment of activity included (1) measuring suppression of numbers of total lymphocytes, antigen specific IgM, IgG1 and IgG2a antibody secreting cells (ASC) (ELISPOT assay) in popliteal lymph node cells; (2) analysis of cell surface marker (CD4, CD8, CD19, F480, CD80, CD86) expression by flow cytometry of living cells in suspension; and (3) IL-4, TNFα and IFNγ production by lymphocytes in vitro (ELISA).
Groups (n=5 per group) of specific pathogen free BALB/C mice were used. The Positive control group was treated with vehicle (oral gavage) and 5 μg/day dexamethasone by subcutaneous injection to induce immune suppression. Vehicle control animals (negative control) were treated with vehicle alone (oral gavage). One group of animals was treated with 17α-ethynylandrost-5-ene-3β,7β,17β-triol at 0.1 mg/day by oral gavage. Another group was treated with 1 mg/day of 17α-ethynylandrost-5-ene-3β,7β,17β-triol was administered to the animals oral gavage. The results were analyzed by two-tailed Student's t-test with equal variance. The animals were injected in the right hind footpad with 50 μL of freshly prepared sensitizing dose of TNP-OVA. Dexamethasone (decadron phosphate injection; dexamethasone sodium phosphate) was administered by subcutaneous injection into the nape of the neck daily, immediately following sensitization with TNP-OVA. 17α-Ethynylandrost-5-ene-3β,7β,17β-triol was given immediately afterwards by gavage. Five days after injection of TNP-OVA, blood was drawn by orbital puncture, and the mice were euthanized by cervical dislocation and popliteal lymph nodes were removed and separated from adherent fatty tissue. Single cell suspensions were prepared, resuspended in 1 mL PBS-BSA (1%) and counted. Cell numbers, IL-4, IL-5 and IFNγ were measured.

C[C@]12CC[C@H](O)CC1CC[C@@H]1[C@@H]2CC[C@]2(C)C(=O)[C@H](O)C[C@@H]12 (stereo partly drawn) [3β,16α-dihydroxy-17-oxoandrostane]
production of γ-interferon [1]: Reduced production
survival at 72 hours [2]: 50%
immune suppression in the MLR [3]: not appreciably immune suppressive
IC50 (NF-κB; Homo sapiens, THP-1, read-out: IC50 for inhibition of NF-κB activation, after LPS stimulation, 50% of the maximum inhibition the compound can induce, averages of 2-4 assays): > 10 µM
neutrophils in the pleura / pleural exudate ([4]; 0.001 mg dose s.c.): inactive
number of neutrophils relative to untreated carrageenan-λ control (100%) ([4]; 0.001 mg s.c. 24 h and 1 h before carrageenan-λ): 97%
number of neutrophils relative to untreated carrageenan-λ control (100%) ([4]; 0.01 mg s.c. 24 h and 1 h before carrageenan-λ): 73%
number of neutrophils in the pleura ([4]; 0.1 mg and 0.01 mg doses s.c.): significant reduction
volume of pleural exudate ([4]; 0.1 mg dose s.c.): significantly reduced
number of neutrophils relative to untreated carrageenan-λ control (100%) ([4]; 0.1 mg s.c. 24 h and 1 h before carrageenan-λ): 73%
potency compared with polyclonal anti-TNF-α antibody control ([4]; s.c.): less potent
cell counts in the BAL fluid [5]: about 4.4×10^7 cells/mL
metabolism by microsomes [6]: metabolized by microsomes at a rate similar to the androst-5-ene-3β,17β-diol reference compound

C[C@]12CC[C@H](O)CC1=CC[C@@H]1[C@@H]2CC[C@]2(C)C(=O)CC[C@@H]12 [dehydroepiandrosterone]
IC50 (NF-κB; Homo sapiens, THP-1, read-out: IC50, this protocol): > 10 µM
inhibition at 100 µM ([7]; Mus musculus, BMMC, 100 μM, 5 to 10 minutes before activation with anti-IgE antigen-antibody complexes): ~70%
degranulation by compound alone ([7]; no stimulus): no measurable degranulation

C[C@@H]1C[C@H]2[C@@H]3CCC4=CC(=O)C=C[C@]4(C)[C@@]3(F)[C@@H](O)C[C@]2(C)[C@@]1(O)C(=O)CO [dexamethasone, reference compound]
osteoprotegerin [8]: 3.3 pmol/L
EC50 (NF-κB; Homo sapiens, THP-1, TNFα stimulation, average of 5 assays, read-out: EC50 for decreasing the effect of TNFα): 0.00047 µM
maximum NF-κB inhibition (NF-κB; this protocol): 100%
11β-HSD mRNA (MG-63 cells; compounds at 10 nM in the presence of 30 nM dexamethasone, vehicle control 0.25): 1.0 units
IL-8 (MG-63 cells; compounds at 10 nM in the presence of 30 nM dexamethasone, vehicle control 0.90): 0.12 units
IL-6 (MG-63 cells; compounds at 10 nM in the presence of 30 nM dexamethasone, vehicle control 6.2): 1.3 pg/mL
osteoprotegerin (MG-63 cells; vehicle control 445): 280 pmol/L
IL-13 ([9]; day 35): 340 pg/mL
IL-5 in lung tissue ([9]; day 38): 145 pg/mL
IL-13 ([9]; day 38): 390 pg/mL
average number of lymphocytes in PLNs [10]: 2.9×10^6 per lymph node
